According to patent US8716288B2, “Composition comprising benproperine derivatives as active ingredients for preventing and treating angiogenesis-related diseases” (Korea Research Institute of Bioscience and Biotechnology, priority 2010, dated 2014):
Marks after values point to notes of the source that are not given here.

Key:
[1] = tested on: DLD-1 cell (human colorectal cancer cell line in which PRL-3 is over-expressed); experiment: In vitro cell migration, trans-well assay; type: cell-based; conditions: for inhibitory activity against cell migration for colorectal cancer cell line: DLD-1, compared with control sample of 0.1% DMSO, FIG. 4
Method: In order to analyze inhibitory activity against in vitro cell migration of the benproperine derivative according to the present invention, after DLD-1 cell (ATCC-CCL-221), which is the human colorectal cancer cell lines in which PRL-3, cancer metastasis-related genes, is over-expressed, was grown around by 90% on the culture plate containing RPMI medium, the medium was removed and the cell was washed with PBS. The washed cell was processed with trypsin-EDTA, cultured CO2 incubator at 37° C. for […], and then detached. The resultant cells in which 10% FBS-containing RPMI medium was added were collected in the falcon tube and the medium was removed by centrifugation. The process in which FBS-free RPMI medium were added in the obtained cells and the medium was removed by centrifugation was repeated twice. After the obtained cells in which FBS-free RPMI medium was added were suspended, the number of cells was counted using a hemocytometer.
The cells of 8×10^4 cells/200 μl were added to trans-wells which were placed on 24-well plates. FBS-free RPMI medium of 500 μl was added using the empty space where trans-wells were placed on well plates and cultured in a CO2 incubator at 37° C. for 12 to 16 hours. After the medium has been removed by placing trans-wells upside down on hand towel following culture, crystal violet of 500 μl (20% MeOH in 5 mg/ml) was added to each well of 24-well plates and trans-wells were put in a CO2 incubator for 30 minutes. Stained trans-wells were washed with PBS and placed upside down on hand towel so that the remaining solution was impregnated. Membrane was placed on the cover slip with the side where the cells didn't move facing upwards and wiped well with a cotton swab. The cover slip on whose edges nail polish was applied a little was put on a slide glass and fixed. The prepared sample was photographed with an inverted microscope (TE 300, Nikon, Japan) equipped with digital camera and the number of cells having moved was counted.
Inhibitory activity against cell migration of benproperine and pharmaceutically acceptable salt thereof in Formulas 2 to 4 according to the present invention was observed by the above method, and inhibition rate was calculated by the Mathematical Equation 1.
Wherein the control sample was observed by adding 0.1% dimethyl sulfoxide (DMSO) only without addition of the compound in the present invention.

[2] = tested on: melanoma cell line B16F10; experiment: In vitro cell migration, trans-well assay; type: cell-based, mouse; conditions: 10 μM, B16F10, FIG. 5
[3] = tested on: DLD-1 cell (human colorectal cancer cell line in which PRL-3 is over-expressed); experiment: Cytotoxicity of benproperine, WST-1 assay; type: cell-based; conditions: DLD-1 cells, 48 hours, up to 10 μM, WST-1 absorbance at 450 nm, FIG. 2
Method: In order to examine the cytotoxicity of the benproperine derivative prepared in Reference Example 1, after DLD-1 cell (ATCC-CCL-221), which is the human colorectal cancer cell lines in which PRL-3 cancer metastasis-related genes is over-expressed, was cultured in the RPMI culture medium containing 10% fetal bovine serum (FBS) and maintained at 37° C., 5% CO2, the cell was detached using 0.05% trypsin-EDTA. 4×10^3 cells which were calculated by hemocytometer were inoculated in each well of 96-well plates medium containing 10% FBS, and cultured in 37° C. incubator containing 5% CO2. After 24 hours, the culture medium of each well was replaced with new medium containing control (0.1% DMSO) and benproperine in Formula 2, which was prepared in Reference Example 1, by concentration (5 to 10 μM) and replace it with a new medium, and was cultured in 37° C., 5% CO2 incubator for 48 hours. After WST-1 (Roche) of 10 μl was added in each well of the above plate followed by 2 hours of culture, absorbance was measured at 450 nm using ELISA reader (Bio-Rad).

[4] = tested on: vascular endothelial cell HUVECs; experiment: In vitro endothelial morphogenesis assay (tube formation on Matrigel); type: cell-based, human; conditions: 24 hours, FIG. 6
Method: Specifically, HUVECs (ATCC-CRL-2873) was brought into the starvation state by culturing in a serum-free medium overnight. Matrigel matrix (BD biosciences) of 0.2 ml was added in each well of 24-well plates and placed in the 37° C. incubator for 1 hour to coat the surface of well. 0.2 ml 2×10^4 cells prepared in the above were added to each well coated with Matrigel matrix and cultured in a CO2 incubator for 30 minutes. After culture, fresh medium containing benproperine of 1, 5, and 10 μM concentration was added in each well followed by the addition of 1% serum and cultured in a CO2 incubator for 24 hours. After culture, the degree of inhibitory activity against HUVECs tube formation of benproperine was observed under a microscope.

[5] = In vitro cell migration, trans-well assay; type: cell-based, human; conditions: 10 μM, A375P, FIG. 5
[6] = tested on: pancreatic cancer cell line AsPc-1 cells; experiment: In vitro cell migration, trans-well assay; type: cell-based, human; conditions: 10 μM, AsPc-1, FIG. 5
[7] = tested on: B16F10 human melanoma cells; experiment: In vivo metastasis of cancer, melanoma cells inoculated to tail vein, lung colony count; parameters: species or system C57BL/6 mouse; conditions: 50 mg/kg intraperitoneally once a day, 14 times in total; for Inhibition rate (%) of metastasis: compared with control group, p < 0.001
Method: In order to analyze inhibitory activity against in vivo cell migration of benproperine according to the present invention, inhibitory activity against metastasis of cancer of benproperine was analyzed using tumor model where melanoma cells are transplanted.
Specifically, B16F10 […] melanoma cell line (ATCC-CRL-6475) was inoculated to DMEM (GIBCO, USA) medium containing 10% FBS (GIBCO, USA), and cultured at 5% CO2, 37° C. 7-week-old female specific pathogen free (SPF) C57BL/6 mouse was adapted to the laboratory environment by supplying enough antibiotic-free pellet feed (Samyang feed Inc., South Korea) and sterilized tap water, and then used in the experiment.
Cultured B16F10 […] melanoma cells were suspended in PBS 200 μl at the concentration of 2×10^6 cells/ml, and inoculated […] to tail vein of the above mouse using a 26 gauge needle. After 3 hours of inoculation, the mice were divided into two groups in which the control group treated with sterile distilled water and the experimental group was intraperitoneally administered with benproperine of 50 mg/kg once a day, 14 times in total. The administration continued for 13 consecutive days, and then stopped. On day after the administration, autopsy was performed to the mouse of each group to extract the lung, and the number of colonies of metastasized cancer cells (melanoma cells) was counted.

[8] = Acute toxicity experiment of oral administration to rats; conditions: rat, in vivo, 1000 mg/kg
Method: In order to identify the toxicity of benproperine and pharmaceutically acceptable salt thereof according to the present invention, acute toxicity experiment was performed with laboratory animal as the subject as follow.
After 6-week-old specific pathogen free (SPF) SD bred rats were divided into groups of 2 specimens, and were orally administered once with benproperine which was prepared in Reference Example 1 and dissolved in injectable distilled water with a dose of 1000 mg/kg.

[9] = tested on: human-derived pancreatic cancer cell line (AsPC-1); experiment: In vivo metastasis of cancer, AsPC-1 transplanted in caudal vein, bioluminescence imaging; parameters: species or system BALB/C nude mouse; conditions: 50 mg/kg orally, 28th day after drug administration, lung, FIG. 8
Excerpt: In order to examine the in vivo inhibitory activity of the salt of benproperine of the present invention against metastasis of cancer, the inhibitory activity of benproperine phosphate (MD-164) against metastasis of cancer and toxicity of the same were examined by using the animal model which was transplanted with human-derived pancreatic cancer cell line (AsPC-1) in caudal vein.
To be specific, the human-derived pancreatic cancer cell line AsPC-1 (adenocarcinoma; Pancrease cancer) had been stored frozen in liquid nitrogen and it was thawed and cultured in CO2 incubator (Form a, USA) with 5% CO2 at 37° C. Specific-pathogen-free (SPF) BALB/C nude mouse (orient, Korea) was used in this experiment. […]
Secondly, in order to establish an animal model of pulmonary metastases, luciferase stably expressing AsPC-1 cell line was transplanted into a tail vein of mouse at a dose of 1×10^6 cells/mouse. […] The bioluminescence value was measured for equal area of each mouse subject, and the metastasis inhibition rate (%) in the group administered with benproperine phosphate was determined compared to a control group by the Mathematical Equation 2.
On the 28th day after drug administration, the lung of animal model was collected, the number of colony was measured, and imaging signal (photone/s/sr) was also measured.

[10] = Weight change in the AsPC-1 metastasis model (toxicity); type: in vivo, BALB/C nude mouse; conditions: 50 and 100 mg/kg orally, five times a week, total of 20 times, FIG. 7
Method: To be specific, the human-derived pancreatic cancer cell line AsPC-1 (adenocarcinoma; Pancrease cancer) had been stored frozen in liquid nitrogen and it was thawed and cultured in CO2 incubator (Form a, USA) with 5% CO2 at 37° C. Specific-pathogen-free (SPF) BALB/C nude mouse (orient, Korea) was used in this experiment.
The cultured cells were collected and diluted to a cell concentration of 5×10^6 cells/ml by adding serum free media. Then, the animal model was prepared by intravenous administration of 0.2 ml of the cell culture to each mouse. Subsequently, 5 mg/ml of benproperine phosphate (MD-164) (KRIBB, Korea) was prepared by dissolving it in 0.5% Tween80 and orally administered to the mouse at a dose of 10 ml/kg five times a week, for a total of 20 times.
First, in order to analyze the toxicity of benproperine phosphate, the weight of all test groups was measured prior to administration of the compound, three times a week during the test period.

Molecule: CC(COc1ccccc1Cc1ccccc1O)N1CCCCC1 (centres unmarked) [2-hydroxybenproperine]
- inhibitory activity against cell migration for colorectal cancer cell line [1]: inhibit effectively

Molecule: CC(COc1ccccc1Cc1ccccc1)N1CCCCC1 (centres unmarked) [benproperine]
- cell migration compared with DMSO-treated sample [2]: prominently inhibited
- cytotoxicity [3]: no cytotoxicity
- cell migration compared with DMSO-treated sample ([1]; 10 μM, DLD-1, FIG. 5): prominently inhibited
- inhibitory activity against cell migration for colorectal cancer cell line [1]: inhibit effectively
- inhibition at 5 µM ([1]; Homo sapiens, 5 μM, DLD-1, control 0.1% DMSO, FIG. 3, read-out: inhibition of migration of colorectal cancer cell compared to control): > 80%
- inhibition at 10 µM ([1]; Homo sapiens, 10 μM, DLD-1, control 0.1% DMSO, FIG. 3, read-out: inhibition of migration of colorectal cancer cell compared to control): > 90%
- inhibition of tube formation of HUVECs ([4]; 10 μM, compared to DMSO-treated control group): significantly
- inhibition of tube formation of HUVECs ([4]; 1, 5 and 10 μM): concentration-dependent manner
- cell migration compared with DMSO-treated sample [5]: prominently inhibited
- cell migration compared with DMSO-treated sample [6]: prominently inhibited
- Inhibition rate (%) of metastasis [7]: 45.1%
- Inhibition rate (%) of metastasis ([7]; listed as Benproperine): 45.1* %
- Number of lung colony (average ± SD) ([7]; negative control 106 ± 23.3): 58.2 ± 25.8
- LD50 ([8]; Sprague-Dawley (SD), rats, single oral administration, read-out: minimum lethal dose (LD50) for oral administration): > 1000 mg/kg
- clinical symptoms, death, or weight changes ([8]; po): not observed
- toxic change (hematological examination, biochemical examination of blood, autopsy) ([8]; po): no toxic change

Molecule: benproperine phosphate
- inhibition rate against metastasis compared to a control group [9]: 71.5%
- weight loss in comparison to a control group [10]: no significant weight loss

Molecule: CC(COc1ccccc1Cc1ccccc1)N1CCCC(O)C1 (centres unmarked) [3-hydroxybenproperine]
- inhibitory activity against cell migration for colorectal cancer cell line [1]: inhibit effectively
